Laboratory results from patent US20230203044A1, “PYRAZOLO[1,5-D][1,2,4]TRIAZINE-5(4H)-ACETAMIDES AS INHIBITORS OF THE NLRP3 INFLAMMASOME” (JANSSEN PHARMACEUTICA NV, priority 2020, published 2023).

Experiments:
TNF = test: PBMC assay: TNF cytokine levels in LPS-stimulated human PBMCs (MSD); assay type: cell-based; details: 100 ng/ml LPS for 6 hrs, TNF in supernatant via MSD
Protocol: (§1) Peripheral venous blood was collected from healthy individuals and human peripheral blood mononuclear cells (PBMCs) were isolated from blood by Ficoll-Histopaque (Sigma-Aldrich, A0561) density gradient centrifugation. After isolation, PBMCs were stored in liquid nitrogen for later use. Upon thawing, PBMC cell viability was determined in growth medium (RPMI media supplemented with 10% fetal bovine serum, 1% Pen-Strep and 1% L-glutamine). Compounds were spotted in a 1:3 serial dilution in DMSO and diluted to the final concentration in 30 μl medium in 96 well plates (Falcon, 353072). PBMCs were added at a density of 7.5×10^4 cells per well and incubated for 30 min in a 5% CO2 incubator at 37° C. LPS stimulation was performed by addition of 100 ng/ml LPS (final concentration, Invivogen, tlrl-smlps) for 6 hrs followed by collection of cellular supernatant and the analysis of IL-1β (μM) and TNF cytokines levels (μM) via MSD technology according to manufacturers' guidelines (MSD, K151A0H).
The IC50 values (for IL-1β) and EC50 values (TNF) were obtained on compounds of the invention/examples, and are depicted in the following table: […]

NLRP3 inflammasome = test: PBMC assay: IL-1β in LPS-stimulated human PBMCs (MSD); assay type: cell-based; details: human PBMCs, 100 ng/ml LPS for 6 hrs, IL-1β in supernatant via MSD, read-out: IL1β IC50
Protocol: The activity of a compound according to the present invention can be assessed by in vitro methods.
as §1, with “Compounds were spotted in a 1:3 serial dilution in DMSO and diluted to the final concentration in 30 μl medium in 96 well plates (Falcon, 353072).” left out

SMILES | EC50 (TNF) [nM] | IC50 (NLRP3 inflammasome) [nM]
CCc1cc2c(=O)n(CC(=O)Nc3ccncn3)nc(C(C)C)n2n1 [Final Cpd 1, 2-(2-ethyl-7-isopropyl-4-oxo-pyrazolo[1,5-d][1,2,4]triazin-5-yl)-N-pyrimidin-4-yl-acetamide] | > 10000 | 340
CC(C)c1nn(CC(=O)Nc2ccncn2)c(=O)c2cc(I)nn12 [Final Cpd 2, 2-(2-iodo-7-isopropyl-4-oxo-pyrazolo[1,5-d][1,2,4]triazinyl)-N-pyrimidin-4-yl-acetamide] | > 10000 | < 120
CC(C)c1cc2c(=O)n(CC(=O)Nc3ccncn3)nc(C(C)C)n2n1 [Final Cpd 3] | > 10000 | 280
CCc1nn(CC(=O)Nc2ccncn2)c(=O)c2cc(I)nn12 [Final Cpd 4, 2-(7-ethyl-2-iodo-4-oxo-pyrazolo[1,5-d][1,2,4]triazin-5-yl)-N-pyrimidin-4-yl-acetamide] | > 10000 | 290
CCc1nn(CC(=O)Nc2ccc3nncn3c2)c(=O)c2cc(I)nn12 [Final Cpd 6] | > 10000 | 230
CCc1nn(CC(=O)N[C@H]2C[C@@](C)(O)C2)c(=O)c2cc(I)nn12 [Final Cpd 7] | > 10000 | 600
CC(C)c1nn(CC(=O)N[C@H]2C[C@@](C)(O)C2)c(=O)c2cc(C3CC3)nn12 [Final Cpd 8] | > 10000 | 240
CC(C)c1nn(CC(=O)N[C@@H]2CCCN(C3CCC3)C2)c(=O)c2cc(C3CC3)nn12 [Final Cpd 9] | > 10000 | < 120
CCc1nn(CC(=O)Nc2ccncn2)c(=O)c2cc(C3CC3)nn12 [Final Cpd 10, 2-(2-cyclopropyl-7-ethyl-4-oxo-pyrazolo[1,5-d][1,2,4]triazin-5-yl)-N-pyrimidin-4-yl-acetamide] | > 10000 | 640
CC(C)c1nn(CC(=O)Nc2ccncn2)c(=O)c2cc(C3CC3)nn12 [Final Cpd 11] | > 10000 | 170
CCCc1cc2c(=O)n(CC(=O)Nc3ccncn3)nc(C(C)C)n2n1 [Final Cpd 12] | > 10000 | 600
CCc1cc2c(=O)n(CC(=O)Nc3ccncn3)nc(CC)n2n1 [Final Cpd 13] | > 10000 | 1710
CCc1nn(CC(=O)Nc2ccncn2)c(=O)c2cc(C)nn12 [Final Cpd 14] | > 10000 | 8110
CCCc1cc2c(=O)n(CC(=O)Nc3ccncn3)nc(CC)n2n1 [Final Cpd 15] | > 10000 | 2400
CCc1nn(CC(=O)Nc2ccncn2)c(=O)c2cc(C(C)C)nn12 [Final Cpd 16] | > 10000 | 840
Cc1cc2c(=O)n(CC(=O)Nc3ccncn3)nc(C(C)C)n2n1 [Final Cpd 17] | > 10000 | 1100
CNc1cc2c(=O)n(CC(=O)Nc3ccncn3)nc(C(C)C)n2n1 [Final Cpd 18, 2-[7-isopropyl-2-(methylamino)-4-oxo-pyrazolo[1,5-d] [1,2,4]triazin-5-yl]—N-pyrimidin-4-yl-acetamide] | > 10000 | 160
CCc1nn(CC(=O)Nc2ccncn2)c(=O)c2cc(NC)nn12 [Final Cpd 20] | > 10000 | 1140
CC(C)c1nn(CC(=O)Nc2ccncn2)c(=O)c2cc(N3CCC3)nn12 [Final Cpd 21] | > 10000 | 2750
CCOC(=O)C1CC(Cc2cc3c(=O)n(CC(=O)Nc4ccnnc4)nc(C(C)C)n3n2)C1 (stereo not shown) [Final Cpd 177, ethyl 3-((7-isopropyl-4-oxo-5-(2-oxo-2-(pyridazin-4-ylamino)ethyl)-4,5-dihydropyrazolo[1,5-d][1,2,4]triazin-2-yl)methyl)cyclobutane-1-carboxylate] | – | 2060
CC(C)c1nn(CC(=O)N[C@H]2CN(C3CCC3)CC[C@H]2O)c(=O)c2cc(C3CC3)nn12 [Final Cpd 191, N-((3 S,4R)-1-cyclobutyl-4-hydroxypiperidin-3-yl)-2-(2-cyclopropyl-7-isopropyl-4-oxopyrazolo[1,5-d][1,2,4]triazin-5(4H)-yl)acetamide] | > 10000 | –
